{"source": "the SangsterLogP compilation"}
{"test": "method code SF-HPLC, from DOI: 10.1021/jm00151a006, PMID: 3510299"}
{"smiles": "COc1cccc(CN(C)N=O)c1", "logP": 1.6}
{"smiles": "CN(Cc1cccc([N+](=O)[O-])c1)N=O", "logP": 1.17}
{"smiles": "Cc1cccc(CN(C)N=O)c1", "logP": 1.96}
{"smiles": "CN(Cc1ccc(C#N)cc1)N=O", "logP": 0.99}
{"smiles": "CN(Cc1ccc(F)cc1)N=O", "logP": 1.67}
{"smiles": "Cc1ccc(CN(C)N=O)cc1", "logP": 2.14}
{"smiles": "CN(Cc1ccc([N+](=O)[O-])cc1)N=O", "logP": 0.82}
{"smiles": "CN(Cc1ccccc1)N=O", "logP": 1.55}
{"smiles": "CN(Cc1ccc(Cl)cc1)N=O", "logP": 2.19}
{"smiles": "COc1ccc(CN(C)N=O)cc1", "logP": 1.62}
{"smiles": "CN(Cc1cccc(Cl)c1)N=O", "logP": 1.46}
{"smiles": "CN(Cc1cccc(C(F)(F)F)c1)N=O", "logP": 1.99}
